Where “and” joins values, the source holds several entries; their conditions need not be identical. Equal values may be shown once. Read-outs that look alike come from different tables or passages of the source.
Legend:
α7-nAChR [1] = molecular target: T1, α7-nAChR (Mus musculus, UniProt P49582); conditions: in vivo; cited from earlier work
α3β2-nAChR = α3β2-nAChR (Rattus norvegicus, UniProt P04757+P12390); test: Heteromeric nAChR binding assay, transfected HEK293 membranes, [3H]epibatidine
α7-nAChR [2] = molecular target: T1, α7-nAChR; conditions: in vivo
α2β4-nAChR = molecular target: T2, α2β4-nAChR (Rattus norvegicus, UniProt P12389+P12392); test: Heteromeric nAChR binding assay, transfected HEK293 membranes, [3H]epibatidine
T2 construct: expressed in transfected cells
T2 sequence (P12389 28-511): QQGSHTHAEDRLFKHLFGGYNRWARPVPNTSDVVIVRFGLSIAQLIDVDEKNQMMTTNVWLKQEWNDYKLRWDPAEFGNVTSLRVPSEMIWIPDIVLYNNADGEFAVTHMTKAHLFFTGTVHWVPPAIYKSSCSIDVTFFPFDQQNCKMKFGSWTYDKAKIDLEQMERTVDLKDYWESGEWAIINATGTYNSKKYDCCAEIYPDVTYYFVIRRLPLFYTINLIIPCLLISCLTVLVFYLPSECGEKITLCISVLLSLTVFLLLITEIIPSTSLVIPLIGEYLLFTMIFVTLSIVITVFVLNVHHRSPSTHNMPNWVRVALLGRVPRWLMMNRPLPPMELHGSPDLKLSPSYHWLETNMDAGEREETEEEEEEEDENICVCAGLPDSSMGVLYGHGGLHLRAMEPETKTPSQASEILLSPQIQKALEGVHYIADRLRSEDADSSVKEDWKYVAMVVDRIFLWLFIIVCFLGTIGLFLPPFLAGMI
T2 sequence (P12392 21-495): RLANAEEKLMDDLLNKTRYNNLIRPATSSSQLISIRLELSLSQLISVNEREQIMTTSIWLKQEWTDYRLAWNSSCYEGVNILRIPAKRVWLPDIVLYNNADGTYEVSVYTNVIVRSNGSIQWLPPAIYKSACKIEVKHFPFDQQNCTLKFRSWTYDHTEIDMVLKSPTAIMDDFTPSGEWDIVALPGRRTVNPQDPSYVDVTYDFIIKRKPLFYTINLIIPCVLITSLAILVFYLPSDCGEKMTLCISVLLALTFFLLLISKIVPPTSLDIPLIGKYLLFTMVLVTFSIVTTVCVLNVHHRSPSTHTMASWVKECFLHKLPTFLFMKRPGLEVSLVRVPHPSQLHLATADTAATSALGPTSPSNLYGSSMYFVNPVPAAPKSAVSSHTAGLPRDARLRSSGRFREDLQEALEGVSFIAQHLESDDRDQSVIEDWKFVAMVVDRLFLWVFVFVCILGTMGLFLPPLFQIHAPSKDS

α4β2-nAChR = α4β2-nAChR (Rattus norvegicus, UniProt P09483+P12390); test: as above
α4β2-nAChR, sequence (P09483 31-630): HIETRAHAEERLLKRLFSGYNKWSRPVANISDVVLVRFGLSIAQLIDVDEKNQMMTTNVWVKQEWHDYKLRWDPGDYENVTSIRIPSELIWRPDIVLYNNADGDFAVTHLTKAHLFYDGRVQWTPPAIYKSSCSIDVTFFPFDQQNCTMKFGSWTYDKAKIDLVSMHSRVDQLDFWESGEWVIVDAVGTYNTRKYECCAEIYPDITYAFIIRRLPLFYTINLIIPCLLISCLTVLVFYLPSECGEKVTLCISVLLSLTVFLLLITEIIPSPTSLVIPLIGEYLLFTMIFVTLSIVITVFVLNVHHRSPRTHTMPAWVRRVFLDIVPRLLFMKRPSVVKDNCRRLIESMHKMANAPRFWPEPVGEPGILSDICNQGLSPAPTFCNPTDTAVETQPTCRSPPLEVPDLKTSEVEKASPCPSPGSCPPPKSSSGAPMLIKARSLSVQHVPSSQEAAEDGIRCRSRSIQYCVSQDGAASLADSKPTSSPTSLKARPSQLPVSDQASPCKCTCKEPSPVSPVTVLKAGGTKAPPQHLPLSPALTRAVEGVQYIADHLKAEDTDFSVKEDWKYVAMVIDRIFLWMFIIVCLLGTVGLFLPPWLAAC
α4β2-nAChR, sequence (P12390 25-500): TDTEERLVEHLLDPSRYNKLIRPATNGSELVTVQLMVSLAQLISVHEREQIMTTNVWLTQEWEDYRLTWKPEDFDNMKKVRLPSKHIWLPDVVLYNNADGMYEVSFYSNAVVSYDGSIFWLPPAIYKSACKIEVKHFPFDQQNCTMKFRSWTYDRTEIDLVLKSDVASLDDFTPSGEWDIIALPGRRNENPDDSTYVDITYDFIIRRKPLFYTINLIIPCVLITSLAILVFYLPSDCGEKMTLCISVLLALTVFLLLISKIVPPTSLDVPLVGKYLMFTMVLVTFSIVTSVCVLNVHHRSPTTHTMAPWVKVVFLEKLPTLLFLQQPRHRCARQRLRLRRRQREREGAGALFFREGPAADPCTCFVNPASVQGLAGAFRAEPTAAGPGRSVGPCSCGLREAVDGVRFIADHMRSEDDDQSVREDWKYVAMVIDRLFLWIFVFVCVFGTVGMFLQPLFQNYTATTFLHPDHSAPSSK

α3β4-nAChR = molecular target: T3, α3β4-nAChR (Rattus norvegicus, UniProt P04757+P12392); test: as above
T3 construct: expressed in transfected cells
T3 sequence (P04757 26-499): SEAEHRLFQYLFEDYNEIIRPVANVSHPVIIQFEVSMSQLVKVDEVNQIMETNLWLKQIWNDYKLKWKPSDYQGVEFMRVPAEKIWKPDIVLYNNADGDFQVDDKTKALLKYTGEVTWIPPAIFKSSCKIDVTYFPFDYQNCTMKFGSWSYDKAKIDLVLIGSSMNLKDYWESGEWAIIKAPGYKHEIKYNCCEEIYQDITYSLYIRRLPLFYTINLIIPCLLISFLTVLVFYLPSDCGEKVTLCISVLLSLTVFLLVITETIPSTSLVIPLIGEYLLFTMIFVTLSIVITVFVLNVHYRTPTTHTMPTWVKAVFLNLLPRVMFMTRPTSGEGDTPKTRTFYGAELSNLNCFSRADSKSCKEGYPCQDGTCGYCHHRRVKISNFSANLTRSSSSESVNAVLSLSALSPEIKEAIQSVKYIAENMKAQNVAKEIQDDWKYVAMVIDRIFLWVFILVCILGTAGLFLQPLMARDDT
T3 sequence (P12392 21-495): as the sequence (P12392 21-495) above

Human 5-HT3 [3] = molecular target: T4, Human 5-HT3 (Homo sapiens, UniProt P46098); test: 5-HT3(h) binding assay, recombinant HEK293 cells, [3H]GR65630
T4 sequence (P46098 24-478): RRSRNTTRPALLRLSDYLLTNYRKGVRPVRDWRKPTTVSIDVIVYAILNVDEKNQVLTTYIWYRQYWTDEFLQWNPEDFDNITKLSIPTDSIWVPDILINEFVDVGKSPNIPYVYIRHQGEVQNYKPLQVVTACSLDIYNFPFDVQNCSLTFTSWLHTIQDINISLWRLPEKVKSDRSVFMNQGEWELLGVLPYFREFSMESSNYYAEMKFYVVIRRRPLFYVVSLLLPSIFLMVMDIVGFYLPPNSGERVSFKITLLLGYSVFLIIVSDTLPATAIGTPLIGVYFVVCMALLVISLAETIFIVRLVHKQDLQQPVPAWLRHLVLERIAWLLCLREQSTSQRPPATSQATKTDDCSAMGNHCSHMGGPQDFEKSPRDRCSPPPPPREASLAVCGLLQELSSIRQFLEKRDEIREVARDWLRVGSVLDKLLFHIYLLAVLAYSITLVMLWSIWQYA

α4β4-nAChR = molecular target: T5, α4β4-nAChR (Rattus norvegicus, UniProt P09483+P12392); test: Heteromeric nAChR binding assay, transfected HEK293 membranes, [3H]epibatidine
T5 construct: expressed in transfected cells
T5 sequence (P09483 31-630): as the sequence (P09483 31-630) above
T5 sequence (P12392 21-495): as the sequence (P12392 21-495) above

α7-nAChR [4] = molecular target: α7-nAChR (Rattus norvegicus, UniProt Q05941); test: biochemical; assay type: binding
α7-nAChR (Rattus norvegicus, UniProt Q05941), sequence (Q05941 23-502): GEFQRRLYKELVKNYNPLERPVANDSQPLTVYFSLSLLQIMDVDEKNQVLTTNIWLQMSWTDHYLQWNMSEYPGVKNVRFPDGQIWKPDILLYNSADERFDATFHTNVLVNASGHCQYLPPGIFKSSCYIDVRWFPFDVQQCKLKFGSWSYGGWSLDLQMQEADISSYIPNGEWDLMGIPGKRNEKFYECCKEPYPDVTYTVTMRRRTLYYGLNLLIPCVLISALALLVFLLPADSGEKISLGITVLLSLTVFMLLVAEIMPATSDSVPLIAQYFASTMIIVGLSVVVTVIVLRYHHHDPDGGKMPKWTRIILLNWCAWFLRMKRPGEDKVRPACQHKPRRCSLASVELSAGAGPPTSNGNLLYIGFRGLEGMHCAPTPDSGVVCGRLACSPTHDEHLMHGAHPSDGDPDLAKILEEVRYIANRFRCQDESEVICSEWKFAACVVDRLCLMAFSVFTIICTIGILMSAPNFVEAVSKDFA

α2β2-nAChR = α2β2-nAChR (Rattus norvegicus, UniProt P12389+P12390); test: Heteromeric nAChR binding assay, transfected HEK293 membranes, [3H]epibatidine
α2β2-nAChR, sequence (P12389 28-511): as the sequence (P12389 28-511) above
α2β2-nAChR, sequence (P12390 25-500): as the sequence (P12390 25-500) above

α7-nAChR [5] = molecular target: T1, α7-nAChR; test: Blockade of [18F]ASEM in CD1 mice with mouse-equivalent doses of clinical α7-nAChR drugs; assay type: in vivo; design: The brains were rapidly removed and dissected on ice; tissue Charles River Laboratories; host or cells: brain of live male CD-1 mice
α7-nAChR [6] = molecular target: T6, α7-nAChR (Homo sapiens, UniProt P36544); conditions: read-out: α7-nAChR, Ki, cited from earlier work
T6 sequence (P36544 23-502): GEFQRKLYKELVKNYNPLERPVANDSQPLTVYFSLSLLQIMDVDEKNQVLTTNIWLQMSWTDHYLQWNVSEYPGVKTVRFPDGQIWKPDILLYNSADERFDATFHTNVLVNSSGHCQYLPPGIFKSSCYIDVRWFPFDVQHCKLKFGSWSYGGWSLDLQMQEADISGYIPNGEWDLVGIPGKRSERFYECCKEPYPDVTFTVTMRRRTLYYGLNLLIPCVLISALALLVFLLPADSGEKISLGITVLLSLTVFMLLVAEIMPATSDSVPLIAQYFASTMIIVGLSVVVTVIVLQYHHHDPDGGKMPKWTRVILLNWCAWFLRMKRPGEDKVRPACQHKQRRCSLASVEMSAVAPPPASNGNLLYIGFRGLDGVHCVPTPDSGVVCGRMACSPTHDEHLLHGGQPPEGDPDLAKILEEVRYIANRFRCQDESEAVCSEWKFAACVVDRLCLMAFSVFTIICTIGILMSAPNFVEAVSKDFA

α7-nAChR [7] = molecular target: T1, α7-nAChR; conditions: in vivo; remark: listed apart in the source
α7-nAChR [8] = molecular target: T6, α7-nAChR; conditions: read-out: Ki α7-nAChR (literature); cited from earlier work
α7-nAChR [9] = molecular target: T1, α7-nAChR; design: The brains were rapidly removed and dissected on ice; tissue Charles River Laboratories; host or cells: brain of live male CD-1 mice; species or system CD-1 mice; conditions: in vivo
Human 5-HT3 [10] = molecular target: T4, Human 5-HT3; conditions: read-out: KD of radiotracer, 5-HT3; cited from earlier work
[11] = stably transfected HEK293 cells, [3H]epibatidine (0.5 nM)

T1 sequence (P49582 23-502): as the sequence (Q05941 23-502) above, with A402T counted along it
α3β2-nAChR, sequence (P04757 26-499): as the sequence (P04757 26-499) above
α3β2-nAChR, sequence (P12390 25-500): as the sequence (P12390 25-500) above

## [18F]c1ccc(-c2nnc(N3CCN4CCC3CC4)o2)cc1
α7-nAChR [1]
  BPND in cortex, Mice: 0.4

## O=S1(=O)c2ccc(F)cc2-c2ccc(N3CCN4CCC3CC4)cc21 [Compound 7c, 7-(1,4-Diazabicyclo[3.2.2]nonan-4-yl)-2-fluorodibenzo[b,d]-thiophene 5,5-Dioxide]
α3β2-nAChR; [11]
  Ki: 2000 nM
α7-nAChR [2]
  behavioral / locomotor activity changes: Neither behavioral nor locomotor activity changes were observed
α2β4-nAChR; [11]
  Ki: 8000 nM
α4β2-nAChR
  selectivity α7/α4β2: 663
α4β2-nAChR; [11]
  Ki: 885 nM
α3β4-nAChR; [11]
  Ki: 5000 nM
Human 5-HT3 [3]
  selectivity α7/5HT3: 378
Human 5-HT3 [3]; Human 5-HT3 recombinant/HEK293 cells, [3H]GR65630 (0.35 nM)
  Ki: 505 nM
α4β4-nAChR; [11]
  Ki: 3000 nM
α7-nAChR [4]; Ki α7-nAChR
  Ki: 1.35 nM
α7-nAChR [4]; Ki α7-nAChR (text)
  Ki: 1.3 nM
α7-nAChR [4]; read-out: Ki α7-nAChR
  Ki: 1.32 nM
α2β2-nAChR; [11]
  Ki: 1000 nM

## COc1ccc(/C=C2\CCCN=C2c2cccnc2)c(OC)c1 [DMXB-A, Dimethoxybenzylidene anabaseine]
α7-nAChR [5]; 3 mg/kg, cortex
  blockade of [18F]ASEM binding: 40%
α7-nAChR [5]; 3 mg/kg, hippocampus
  blockade of [18F]ASEM binding: 28%
α7-nAChR [5]; 10 mg/kg, hippocampus, cortex, subcolliculus
  blockade of [18F]ASEM binding: 50-70%
α7-nAChR [5]; 25 mg/kg, hippocampus, cortex, superior and inferior colliculus
  blockade of [18F]ASEM binding: 50-60%
α7-nAChR [5]; 0.1, 0.3, and 1 mg/kg
  blockade of [18F]ASEM binding: did not show significant blockade

## [18F]CCn1ccc2ccc(-c3nnc(N4CCN5CCC4CC5)o3)cc21
α7-nAChR [6]
  Ki: 2.5 nM

## CN1CCCC1c1cccnc1 (stereo not shown) [nicotine]
α7-nAChR [7]
  blockade of [18F]7a accumulation in mouse brain: significant blockade in all regions except the nAChR-poor cerebellum

## O=[N+]([O-])c1cccc2c1S(=O)(=O)c1cc(N3CCN4CCC3CC4)ccc1-2 [Compound 10, 3-(1,4-Diazabicyclo[3.2.2]nonan-4-yl)-6-nitrodibenzo[b,d]-thiophene 5,5-Dioxide]
α7-nAChR [4]; Ki α7-nAChR
  Ki: 0.35 nM
α7-nAChR [4]; read-out: Ki α7-nAChR
  Ki: 0.34 nM

## O=S1(=O)c2ccccc2-c2ccc(N3CCN4CCC3CC4)cc21 [Compound 5, 3-(1,4-diazabicyclo[3.2.2]nonan-4-yl)dibenzo[b,d]thiophene 5,5-dioxide, reference compound]
α7-nAChR [8]
  Ki: 0.023 nM
α7-nAChR [4]; read-out: Ki α7-nAChR (reference compounds)
  Ki: 0.3 nM and 0.5 nM
α7-nAChR [9]
  blockade of [18F]7c accumulation in mouse brain: dose dependent blockade

## O=S1(=O)c2ccccc2-c2c(N3CCN4CCC3CC4)ccc(F)c21 [Compound 7e, 1-(1,4-Diazabicyclo[3.2.2]nonan-4-yl)-4-fluorodibenzo[b,d]-thiophene 5,5-Dioxide]
α3β2-nAChR; [11]
  Ki: 2000 nM
α2β4-nAChR; [11]
  Ki: 562 nM
α4β2-nAChR
  selectivity α7/α4β2: 210
α4β2-nAChR; [11]
  Ki: 4000 nM
α3β4-nAChR; [11]
  Ki: 261 nM
α4β4-nAChR; [11]
  Ki: 251 nM
α7-nAChR [4]; read-out: Ki α7-nAChR
  Ki: 17.8 nM and 20.3 nM

## O=C(Oc1ccc([76Br])cc1)N1CCN2CCC1CC2
α7-nAChR [6]; previously published values, varied assay conditions
  Ki: 24.9 nM

## Cc1[nH]cnc1CCC(=O)c1cn(C)c2ccccc12 [[^3H]GR65630]
Human 5-HT3 [10]
  Kd: 0.5 nM

## [11CH3]N1CC2CN(c3ccc(-c4ccc5[nH]ccc5c4)nn3)CC2C1 (stereo not shown)
α7-nAChR [1]
  BPND in cortex, Mice: 0.5

## O=S1(=O)c2ccc(I)cc2-c2ccc(N3CCN4CCC3CC4)cc21 [Compound 15, 7-(1,4-Diazabicyclo[3.2.2]nonan-4-yl)-2-iododibenzo[b,d]-thiophene 5,5-Dioxide]
α3β2-nAChR
  Ki: 1000 nM
α2β4-nAChR
  Ki: 6000 nM
α4β2-nAChR
  Ki: 477 nM
  selectivity α7/α4β2: 63
α3β4-nAChR
  Ki: 9000 nM
α4β4-nAChR
  Ki: 5000 nM
α7-nAChR [4]; read-out: Ki α7-nAChR
  Ki: 6.46 nM and 8.77 nM
α2β2-nAChR
  Ki: 784 nM

## [125I]c1occc1-c1cnc2c(c1)CC1(CN3CCC1CC3)O2 (stereo not shown)
α7-nAChR [6]
  Ki: 0.26 nM
α7-nAChR [1]
  BPND in cortex, Mice: 0.6

## [11CH3]n1cccc1-c1nnc(N2CCN3CCC2CC3)o1
α7-nAChR [6]
  Ki: 2.2 nM

## [11CH3]N1CC2CN(c3ccc(-c4ccccc4)nn3)CC2C1 (stereo not shown)
α7-nAChR [6]
  Ki: 10.8 nM
α7-nAChR [1]
  BPND in cortex, Mice: 0.2-0.5
